Consider 21 molecules from patent US20230293488A1, “COMPOSITIONS AND METHODS OF USE OF ANTIBACTERIAL DRUG COMBINATIONS” (priority 2015, published 2023).

Like-named read-outs stand apart in the source and are kept apart here. Some results are limits rather than exact numbers.

The subject of assay [1] is MRSA N315. In words: MIC assay and FICI synergy determination (checkerboard). Format: cell-based, Staphylococcus aureus. The settings on record: for MIC: Staphylococcus aureus, MRSA, read-out: MIC in MRSA N315. As to the method: Microbiological Studies: MRSA N315 was a gift from Dr. Steven Gill, University of Rochester, Rochester, NY, USA. S. aureus ATCC 29213 was acquired from the American Type Culture Collection. De-identified clinical MRSA isolates were selected at random from the clinical isolate strain bank at Barnes-Jewish Hospital, St. Louis, MO, USA. Minimal inhibitory concentration (MIC) assays for inhibition of growth were performed following the recommendations of the Clinical and Laboratory Standards Institute (CLSI)^43. Briefly, 23 antibacterial compounds (Supplemental Table 1) were selected based on coverage of all major drug classes, including three compounds not classified as antibiotics for human use, but with known antibacterial properties. Compounds were dissolved in dimethyl sulfoxide (DMSO) to a stock concentration of 50 mg/ml. Exceptions: Sulfometuron at 20 mg/ml in DMSO; Tobramycin, D-cycloserine, and colistin at 50 mg/ml in H2O and filtered at 2 μm. The 23 compounds were formulated into all 253 possible unique pairwise combinations at fixed ratios and at 100× concentrations in solvent. To increase the range of concentrations assayed for possible synergistic or antagonistic drug interactions (>2,000-fold), the drug stocks were arrayed into threefold dilution series down eight rows in 96-well Costar master drug plates, using a BioMek FX robotic liquid handler (Beckman Coulter, Inc.). Drugs were then mixed 1:100 into 96-well plates containing 200 μl/well of cation-adjusted Mueller-Hinton broth (CAMHB). All drug susceptibility assay wells were inoculated with ˜1 μl of mid-log phase bacterial culture at 0.5 McFarland standard (˜2×10^8 CFU/ml) and grown at 37° C. for 24 h. Endpoint growth at 37° C. after 24 h was determined by optical density at 600 nm ≥0.1 using a Synergy H1 reader (BioTek, Inc.).
Synergy of antibiotic combinations was determined using the fractional inhibitory concentration index (FICI) method ^57,58. By this method, the MIC of the antibiotic compound in combination is divided by the MIC of the compound alone, yielding the fractional contribution of each drug component in the combination. Quotients for all in a combination are summed and drug interactions scored using the formula: FICI=(MIC Acomb A B C)/MICagent A+(MIC Bcomb A B C)/MICagent B+(MIC Ccomb A B C)/MICagentC Select pairwise combinations against MRSA were then combined with each of the 21 remaining single drugs to make triple combinations, formulated and tested in identical fashion to the double combinations. Synergy of combinations was confirmed via triplicate measurements of drug conditions at the MIC. Based on its high synergy against MRSA N315 in the sparse screening, ME/PI/TZ and its constituents were selected for further characterization. Final susceptibility testing of ME/PI/TZ and its components was performed using twofold dilution from 128 to 2 μg/ml for each component

Assay [2] concerns MRSA N315. Briefly: Adaptation and cross-resistance assays (11-day passage). To be noted: MRSA N315 after prior exposure/adaptation to meropenem. Format: cell-based, Staphylococcus aureus. The procedure: Adaptation and Cross-resistance Assays: 414 MRSA N315 was grown in 150 μl/well of CAMHB with constant shaking at 37° C. and passaged over 11 days in identical 96-well plates containing replicate threefold dilutions of ME/PI/TZ, ME/PI, ME/TZ, PI/TZ, ME, PI, and TZ. Top concentrations of drug combinations were 33.3 μg/ml for each component, while top concentrations for single drugs was 100 μg/ml. To test for cell viability, at the end of the assay on day 11, all wells from the plate were pinned with a sterile 96-pin replicator and transferred to CAMHB only. After passage, plates were filled 1:1 with 30% CAMHB/glycerol and frozen at −80° C. for later analysis.
Growth rate of isolates over passages in each condition was determined by linear best-fit of logarithm-converted exponential growth phase. […] Adapted isolates were retrospectively chosen from each combination or single compound in wells showing an increase in MIC or growth rate, frozen isolates were streaked out on agar plates to obtain single colonies, re-grown in broth conditions identical to those in which they grew originally, and then re-inoculated in sterile 96-well plates identical to the original 11-day 431 plates.

In assay [3] the test system is MRSA N315. Briefly: Neutropenic mouse peritonitis model of MRSA infection. Format: in vivo, mice. The source says: In vivo mouse model of MRSA infection: Animals. Outbred ICR female mice (6-8 weeks old, 17-25 g body weight; Harlan Laboratories, Inc., Indianapolis, IN, USA) were used. Mice were given Teklad 2019 Extruded Rodent Diet (Harlan Laboratories, Inc., Indianapolis, IN, USA) and water ad libitum. Mice were maintained in polycarbonate shoebox cages containing corncob (The Andersons, Inc., Maumee, OH, USA) and Alpha-dri (Shepherd Specialty Papers, Inc., Richland, MI, USA) bedding under 12-h light/12-h dark cycle at 22±1° C. All procedures involving animals were approved by the University of Notre Dame Institutional Animal Care and Use Committee.
Neutropenic mouse peritonitis model of MRSA infection. Doses of cyclophosphamide (100 μl of 50 mg/ml in 0.9% saline corresponding to 200 mg/kg; Alfa Aesar, Ward Hill, MA, USA) were given intraperitoneally (IP) at 4 days and 1 day prior to infection. The S. strain N315 was streaked onto Brain-Heart Infusion (BHI; Becton Dickson and Company, Sparks, MD, USA) agar and grown overnight at 36° C. The MRSA N315 bacterial inoculum was adjusted to approximately 1×10^8 CFU/ml (corresponding to OD540=0.5), then diluted to give 2×10^7CFU/ml. A 10% porcine mucin (Sigma-Aldrich, St. Louis, MO, USA) suspension was prepared and adjusted to pH 7. Immediately prior to infection, the bacterial inocula were diluted 1:1 with 10% mucin to a final concentration of 1×10^7CFU/ml in 5% mucin. The mice were then infected IP with 0.5 ml of this inoculum. In vivo dosing of compounds in mice was compared with mean or range peak human plasma concentrations of studied β-lactams^44,46,47,62,63.
Antibiotic preparation. Meropenem was obtained from AK Scientific, Inc. (Union City, CA, USA), piperacillin and tazobactam were obtained from Sigma-Aldrich Co. (St. Louis, MO, USA). Linezolid (CAS 165800-03-3) was obtained from AmplaChem (Carmel, IN, USA). Antibiotics were dissolved at a concentration of 16.67 mg/ml in 30% DMSO/30% propylene glycol/40% water. Linezolid was used as positive control and was prepared at 7.5 mg/ml. Vehicle (30% DMSO/30% propylene glycol/40% water) was included as negative control. The dosing formulations were sterilized by passing through 0.2 μm filter prior to injection.
Bacterial isolation from blood. Blood samples were checked for bacterial growth by plating and liquid culture. Whole blood (100 μl, three samples per group) was spread onto Brain-Heart Infusion (BHI) agar plates and incubated at 36° C. overnight. Colonies were counted and three colonies were selected, grown overnight in liquid BHI culture at 36° C., then mixed 1:1 with 30% LB-glycerol and stored at −80° C. The remaining three blood samples of each group (50 μl) was added to 5 ml BHI broth and incubated overnight at 36° C. When growth was noted, cultures were mixed 1:1 with 30% LB-glycerol and stored at −80° C.
Statistical Analyses: Data for minimal inhibitory concentrations (MICs) are derived from triplicate measurements. Adaptation data are taken from two replicate experiments for each drug combination condition. Data for qRT-PCR expression profiling are derived from three replicate experiments taken from three biological replicates each, with standard error of measurement calculated. Mice were treated in groups of six, and growth determination of bacteria determined via plate and broth culture in triplicate. Fisher's Exact test with Bonferroni correction was used for 8 independent tests (comparing each treatment to 610 vehicle).

As a reminder, the MIC is the lowest concentration that inhibits growth of the organism. As to `C[C@H]1[C@H](NC(=O)/C(=N\OC(C)(C)C(=O)O)c2csc(N)n2)C(=O)N1S(=O)(=O)O` [Aztreonam], the MIC in the assay with MRSA N315 [1] (single compounds) was over 500 µg/mL.
As to `CN(C)c1cc(NC(=O)CNC(C)(C)C)c(O)c2c1C[C@H]1C[C@H]3[C@H](N(C)C)C(O)=C(C(N)=O)C(=O)[C@@]3(O)C(O)=C1C2=O` [Tigecycline], the MIC in the assay with MRSA N315 [1] turned out to be 0.4 µg/mL.
For the molecule `N[C@@H]1CONC1=O` [D-Cycloserine], the “MIC in MRSA N315” value with MRSA N315 [1] (single compounds) was 56 µg/mL.
With Bleomycin, the “MIC in MRSA N315” value in the assay with MRSA N315 [1] (single compounds) was over 500 µg/mL.
With `C[C@H]1COc2c(N3CCN(C)CC3)c(F)cc3c(=O)c(C(=O)O)cn1c23` [Levofloxacin], the minimum inhibitory concentration (MIC) in the assay on MRSA N315 [1] (single compounds) was 0.4 µg/mL.
The same measure, in the same setting: under `O=C(N[C@H](CO)[C@H](O)c1ccc([N+](=O)[O-])cc1)C(Cl)Cl` [Chloramphenicol] stands 11.1 µg/mL; under `C/C(=C\C(=O)OCCCCCCCCC(=O)O)C[C@@H]1OC[C@H](C[C@@H]2O[C@H]2[C@@H](C)[C@H](C)O)[C@@H](O)[C@H]1O` [Mupirocin], 0.4 µg/mL; under `CCC[C@@H]1C[C@@H](C(=O)N[C@@H]([C@H]2O[C@H](SC)[C@H](O)[C@@H](O)[C@H]2O)[C@H](C)Cl)N(C)C1` [Clindamycin], over 500 µg/mL.
Turning to `CO[C@H]1/C=C/O[C@@]2(C)Oc3c(C)c(O)c4c(O)c(c(/C=N/N5CCN(C)CC5)c(O)c4c3C2=O)NC(=O)/C(C)=C\C=C\[C@H](C)[C@H](O)[C@@H](C)[C@@H](O)[C@@H](C)[C@H](OC(C)=O)[C@@H]1C` [Rifampin], the MIC in the assay on MRSA N315 [1] (single compounds) was 0.4 µg/mL.
For `CCN(CC)C(=S)SSC(=S)N(CC)CC` [Disulfiram], in the assay with MRSA N315 [1], the MIC stood at 11.1 µg/mL.
The same measure, in the same setting: next, `CN[C@H](CC(C)C)C(=O)N[C@H]1C(=O)N[C@@H](CC(N)=O)C(=O)N[C@H]2C(=O)N[C@H]3C(=O)N[C@H](C(=O)N[C@H](C(=O)O)c4cc(O)cc(O)c4-c4cc3ccc4O)[C@H](O)c3ccc(c(Cl)c3)Oc3cc2cc(c3O[C@@H]2O[C@H](CO)[C@@H](O)[C@H](O)[C@H]2O[C@H]2C[C@](C)(N)[C@H](O)[C@H](C)O2)Oc2ccc(cc2Cl)[C@H]1O` [Vancomycin]: 0.4 µg/mL.
Take `CC1(C)S[C@@H]2[C@H](NC(=O)[C@H](N)c3ccc(O)cc3)C(=O)N2[C@H]1C(=O)O` [amoxicillin]: the “collateral effect on susceptibility” value with MRSA N315 [2] is listed as “sensitizing”.
`CO/N=C(\C(=O)N[C@@H]1C(=O)N2C(C(=O)[O-])=C(C[N+]3(C)CCCC3)CS[C@H]12)c1csc(N)n1` [Cefepime]: in the assay with MRSA N315 [1] (single compounds), the minimum inhibitory concentration (MIC) worked out at 100 µg/mL.
Turning to `NC[C@H]1O[C@H](O[C@H]2[C@H](O)[C@@H](O[C@H]3O[C@H](CO)[C@@H](O)[C@H](N)[C@H]3O)[C@H](N)C[C@@H]2N)[C@H](N)C[C@@H]1O` [Tobramycin], the MIC in the assay with MRSA N315 [1] (single compounds) was over 500 µg/mL.
Consider Colistin, for which the “MIC in MRSA N315” value in the assay on MRSA N315 [1] (single compounds) is 500 µg/mL.
With `CC[C@H]1OC(=O)[C@H](C)[C@@H](O[C@H]2C[C@@](C)(OC)[C@@H](O)[C@H](C)O2)[C@H](C)[C@@H](O[C@@H]2O[C@H](C)C[C@H](N(C)C)[C@H]2O)[C@](C)(O)C[C@@H](C)CN(C)[C@H](C)[C@@H](O)[C@]1(C)O` [Azithromycin], the minimal inhibitory concentration (MIC) with MRSA N315 [1] (single compounds) is over 200 µg/mL.
Take `Cc1cc(NS(=O)(=O)c2ccc(N)cc2)no1` [Sulfamethoxazole]: in the assay on MRSA N315 [1] (single compounds), the MIC worked out at 100 µg/mL.
On the same count and under the same terms, next, `COc1cc(Cc2cnc(N)nc2N)cc(OC)c1OC` [Trimethoprim]: 6.2 µg/mL.
As for `Cc1cc(C)nc(NC(=O)NS(=O)(=O)c2ccccc2C(=O)O)n1` [Sulfometuron], the MIC with MRSA N315 [1] is over 200 µg/mL.
For `Cc1ccc(C)c(OCCCC(C)(C)C(=O)O)c1` [Gemfibrozil], in the assay on MRSA N315 [1] (single compounds), the MIC was over 200 µg/mL.
For the molecule `CC(=O)NC[C@H]1CN(c2ccc(N3CCOCC3)c(F)c2)C(=O)O1` [Linezolid], the “bacteria in blood taken at 11 h post-infection” value in the assay on MRSA N315 [3] (30 mg/kg) was “zero plated colonies and no growth in liquid cultures”. Further, the “Result (Alive/Dead)” value with MRSA N315 [3] (30 mg/kg every 8 hrs SC, 6 doses, one line per mouse) is recorded as “Alive”. The “Result (survivors per group)” value in the assay with MRSA N315 [3] (30 mg/kg every 8 hrs SC, 6 doses, six days post-infection) is reported as 6/6. Moreover, the “survival for six days post-infection” value in the assay with MRSA N315 [3] (30 mg/kg, n=6/group) was “All mice”. Moreover, in the assay with MRSA N315 [3] (survival, n=6/group), the “p versus vehicle (Fisher's exact test)” value is reported as 0.02. Further, the MIC in the assay with MRSA N315 [1] (single compounds) stood at 3.7 µg/mL.
